Laboratory results from the supplement of paper PMC10307832.

Tests used:
Assay in all cases: relative viability (nuclei count vs DMSO), 5 days (fraction); higher = more cells survive
XMD14-99 + Pemetrexed = compound: CN1CCN(CC1)C2=CC(=C(C=C2)NC3=NC(=C(S3)C(=O)C4=C(C=CC=C4Cl)Cl)N)OC [XMD14-99] + Nc1nc2[nH]cc(CCc3ccc(C(=O)N[C@@H](CCC(=O)O)C(=O)O)cc3)c2c(=O)[nH]1 [Pemetrexed] (partner 0.2 µM)
Procedure, shortened: (§1)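 A single step with final 0.05% Triton X-100, 1% formaldehyde and 1 ug/ml Hoechst fixed the cells and stained nuclei 5 days after treatment. Lung cancer cell lines in 1536-well plates had been treated by pin tool the day after seeding with one drug alone or a fixed anchor-drug dose plus five library-drug doses (not always all listed) in √10 steps, and nuclei were counted on 4× images. Relative viability is the ratio of nuclei in treated wells to nuclei in vehicle wells, taken as the median of duplicate plates.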

XMD14-99 + Crizotinib = compound: CN1CCN(CC1)C2=CC(=C(C=C2)NC3=NC(=C(S3)C(=O)C4=C(C=CC=C4Cl)Cl)N)OC [XMD14-99] + C[C@@H](Oc1cc(-c2cnn(C3CCNCC3)c2)cnc1N)c1c(Cl)ccc(F)c1Cl [Crizotinib] (partner 1 µM)
Procedure, shortened: as §1

AZD1208 + OSI-027 = compound: N[C@@H]1CCCN(c2c(/C=C3\SC(=O)NC3=O)cccc2-c2ccccc2)C1 [AZD1208] + COc1cccc2cc(-c3nc([C@H]4CC[C@H](C(=O)O)CC4)n4ncnc(N)c34)[nH]c12 [OSI-027] (partner 0.5 µM)
Procedure, shortened: as §1

XMD14-99 + Luminespib = compound: CN1CCN(CC1)C2=CC(=C(C=C2)NC3=NC(=C(S3)C(=O)C4=C(C=CC=C4Cl)Cl)N)OC [XMD14-99] + CCNC(=O)c1noc(-c2cc(C(C)C)c(O)cc2O)c1-c1ccc(CN2CCOCC2)cc1 [Luminespib] (partner 0.01 µM)
Procedure, shortened: as §1

Row | Cell Line | relative viability (XMD14-99 + Pemetrexed; first compound 0.08 µM) | relative viability (XMD14-99 + Pemetrexed; first compound 0.8 µM) | relative viability (XMD14-99 + Pemetrexed; first compound 2.53 µM) | relative viability (XMD14-99 + Pemetrexed; first compound 8 µM) | relative viability (XMD14-99 + Crizotinib; first compound 0.08 µM) | relative viability (XMD14-99 + Crizotinib; first compound 0.8 µM) | relative viability (XMD14-99 + Crizotinib; first compound 2.53 µM) | relative viability (XMD14-99 + Crizotinib; first compound 8 µM) | relative viability (AZD1208 + OSI-027; first compound 0.08 µM) | relative viability (AZD1208 + OSI-027; first compound 0.253 µM) | relative viability (AZD1208 + OSI-027; first compound 0.8 µM) | relative viability (AZD1208 + OSI-027; first compound 2.53 µM) | relative viability (AZD1208 + OSI-027; first compound 8 µM) | relative viability (XMD14-99 + Luminespib; first compound 0.08 µM) | relative viability (XMD14-99 + Luminespib; first compound 0.8 µM) | relative viability (XMD14-99 + Luminespib; first compound 2.53 µM) | relative viability (XMD14-99 + Luminespib; first compound 8 µM)
1 | NCI-H1734 | 0.42 | 0.409 | 0.406 | 0.4 | 0.634 | 0.713 | 0.618 | 0.638 | 0.51 | 0.534 | 0.495 | 0.468 | 0.342 | 0.175 | 0.179 | 0.172 | 0.185
2 | NCI-H1755 | 0.419 | 0.378 | 0.37 | 0.391 | 0.846 | 0.878 | 0.825 | 0.614 | 0.69 | 0.617 | 0.582 | 0.59 | 0.437 | 0.464 | 0.396 | 0.305 | 0.369
3 | NCI-H1792 | 1.03 | 0.72 | 0.68 | 0.529 | 1.02 | 0.956 | 1.01 | 0.709 | 0.679 | 0.778 | 0.614 | 0.607 | 0.61 | 0.543 | 0.456 | 0.354 | 0.326
4 | NCI-H1915 | 0.472 | 0.475 | 0.431 | 0.426 | 1.02 | 0.877 | 0.812 | 0.805 | 0.571 | 0.524 | 0.569 | 0.428 | 0.451 | 0.745 | 0.72 | 0.754 | 0.61
5 | NCI-H1944 | 0.595 | 0.605 | 0.602 | 0.481 | 1.25 | 1.13 | 0.992 | 0.857 | 0.407 | 0.341 | 0.305 | 0.282 | 0.249 | 0.672 | 0.754 | 0.533 | 0.575
6 | NCI-H1975 | 0.293 | 0.307 | 0.333 | 0.283 | 0.934 | 0.984 | 0.902 | 0.74 | 0.682 | 0.688 | 0.68 | 0.758 | 0.594 | 0.268 | 0.238 | 0.206 | 0.209
7 | NCI-H1993 | 0.708 | 0.541 | 0.524 | 0.448 | 0.952 | 0.847 | 0.792 | 0.68 | 0.599 | 0.447 | 0.616 | 0.491 | 0.536 | 0.849 | 0.761 | 0.782 | 0.632
8 | NCI-H2009 | 1.07 | 1 | 0.947 | 0.997 | 1 | 0.939 | 0.997 | 0.767 | 0.63 | 0.645 | 0.537 | 0.569 | 0.553 | 1.08 | 0.949 | 0.958 | 0.871
9 | NCI-H2023 | 0.249 | 0.249 | 0.224 | 0.167 | 0.731 | 0.648 | 0.667 | 0.495 | 0.342 | 0.339 | 0.324 | 0.316 | 0.253 | 0.719 | – | 0.617 | 0.471
10 | NCI-H2085 | 0.9 | 0.899 | 0.839 | 0.65 | 0.833 | 0.814 | 0.843 | 0.56 | 0.796 | 0.933 | 0.585 | 0.934 | 0.661 | 0.429 | 0.41 | 0.377 | 0.368
11 | NCI-H2087 | 0.681 | 0.644 | 0.597 | 0.611 | 0.773 | 0.896 | 0.632 | 0.463 | 0.518 | 0.508 | 0.427 | 0.513 | 0.445 | 0.151 | 0.173 | 0.179 | 0.135
12 | NCI-H2126 | 0.634 | 0.681 | 0.677 | 0.537 | 1.01 | 1.02 | 0.979 | 0.937 | 0.74 | 0.704 | 0.68 | 0.613 | 0.674 | 0.966 | 0.827 | 0.873 | 0.595
13 | NCI-H2170 | 0.247 | 0.266 | 0.251 | 0.247 | 1.14 | 1.21 | 1.26 | 0.937 | 0.751 | 0.653 | 0.636 | 0.625 | 0.535 | 0.652 | 0.59 | 0.755 | 0.372
14 | NCI-H2228 | 0.324 | 0.319 | 0.398 | 0.257 | 0.37 | 0.447 | 0.48 | 0.301 | 0.5 | 0.586 | 0.406 | 0.308 | 0.304 | 0.147 | 0.19 | 0.153 | 0.104
15 | NCI-H2347 | 0.46 | 0.426 | 0.391 | 0.35 | 0.803 | 0.531 | 0.737 | 0.501 | 0.321 | 0.344 | 0.329 | 0.302 | 0.35 | 0.337 | 0.339 | 0.368 | 0.301
16 | NCI-H2405 | 1.02 | 1.13 | 1 | 0.654 | 0.84 | 0.858 | 0.863 | 0.674 | 0.52 | 0.575 | 0.56 | 0.607 | 0.532 | 0.659 | 0.767 | 0.861 | 0.475
17 | NCI-H3122 | 0.192 | 0.185 | 0.205 | 0.164 | 0.267 | 0.229 | 0.262 | 0.251 | 0.842 | 0.856 | 0.768 | 0.862 | 0.606 | 0.0829 | 0.0788 | 0.132 | 0.0985
18 | PC-3 [JPC-3] | 1.28 | 1.13 | 1.1 | 0.635 | 1.05 | 0.955 | 0.916 | 0.781 | 0.8 | 0.698 | 0.762 | 0.702 | 0.628 | 0.682 | 0.66 | 0.564 | 0.588
19 | PC-14 | 0.148 | 0.138 | 0.115 | 0.131 | 0.824 | 0.796 | 0.866 | 0.714 | 0.838 | 0.881 | 0.722 | 0.586 | 0.621 | 0.156 | 0.151 | 0.156 | 0.171
